# Results taken from patent US7112607B2, “Allosteric adenosine receptor modulators” (King Pharmaceuticals Research & Development, Inc., priority 1997, dated 2006).
# Target: T1, human recombinant A1 adenosine receptors (Homo sapiens, UniProt P30542)
# T1 construct: expressed in transfected cells; host or cells: Chinese hamster ovary (CHO) cells, CHO:huA1, G-418 selected
# T1 sequence (P30542 1-326): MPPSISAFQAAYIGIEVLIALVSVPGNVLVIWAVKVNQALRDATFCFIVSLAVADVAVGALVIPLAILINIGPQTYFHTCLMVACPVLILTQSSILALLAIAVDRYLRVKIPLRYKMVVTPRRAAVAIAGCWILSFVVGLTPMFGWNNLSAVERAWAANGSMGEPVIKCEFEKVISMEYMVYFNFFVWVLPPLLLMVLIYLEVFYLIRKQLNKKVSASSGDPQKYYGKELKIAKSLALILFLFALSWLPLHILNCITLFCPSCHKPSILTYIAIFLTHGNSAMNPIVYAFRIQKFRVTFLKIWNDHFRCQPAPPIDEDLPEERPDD
# Assay: Allosteric enhancement: reduction of cAMP content of CHO:huA1 cells (radioimmunoassay)
# Assay type: cell-based
# Conditions: forskolin 1 μM, rolipram 20 μM, CPA 0.01 nM, adenosine deaminase, 6 min at 36° C.; for inhibition at 0.01 µM / inhibition at 0.1 µM / inhibition at 1 µM / inhibition at 10 µM: 0.1 h, read-out: Change in cAMP Content from Control (mean + SEM)
# Procedure: Chinese hamster ovary cells expressing human recombinant A1 adenosine receptors (CHO:huA1 cells) at a density of approximately 8000 fmol/mg protein were prepared as previously described (Kollias-Baker et al., (1997), J. Pharmacol. Exp. Ther. 281: 761–768) and aliquots of the cells at low passage numbers were frozen and stored in liquid nitrogen. When compounds were tested, an aliquot of CHO:huA1 cells were rapidly thawed after removal from liquid nitrogen, then grown in Ham's F12 culture medium with 10% fetal bovine serum and 0.5 mg/mL of antibiotic G-418 (Shryock, Ozeck, and Belardinelli (1998), Mol. Pharmacol 53: 886–893). Cells were passaged thrice weekly. Aliquots of cells were placed into 12-well plates with culture medium, serum, and antibiotic for 48 hours, by which time the cells had grown to a confluent monolayer.
# Allosteric enhancement was measured as the action of a test compound at different concentrations (0.01, 0.1, 1 and 10 μM) to reduce the cAMP content of CHO:huA1 cells. To initiate an experiment, growth medium was removed from the 12-well plates and cells were washed once with warm Hanks' buffered saline. The wash solution was then removed and replaced with fresh Hanks' solution containing forskolin (1 μM), rolipram (20 μM), N^6-cyclopentyladenosine (CPA, 0.01 nM), adenosine deaminase (2 U/mL), and the test compound. Forskolin was used to stimulate the activity of adenylyl cyclase, rolipram to inhibit cAMP phosphodiesterase, adenosine deaminase to degrade endogenous adenosine, and CPA to cause a small increase of the number of activated adenosine receptors. After 6 min of incubation at 36° C. in the presence of test compound, the incubation solution was removed and hydrochloric acid (final concentration 50 mM) was added to terminate drug action.
# The content of cAMP in acidified extracts of cells was determined by radioimmunoassay as previously described (Kollias-Baker et al., (1997), J. Pharmacol. Exp. Ther. 281: 761–768). Because the magnitude of the effects of allosteric enhancers on CHO:huA1 cells changed subtly with passage number and differed slightly among different aliquots of cells, the actions of the test compounds and the action of a reference compound (PD 81,723) were assessed in each experiment. The effect of each test compound on cAMP content is presented in Table 1 as a percentage of the value of cAMP content in the absence of drug (control, 100%). Each value is a mean±standard error of 6 determinations in each of the number of experiments indicated in the “n” column of the table.
inhibition at 0.01 µM (0.01 μM test compound) [%],inhibition at 0.1 µM (0.1 μM test compound) [%],inhibition at 1 µM (1 μM test compound) [%],inhibition at 10 µM (10 μM test compound) [%],Change in cAMP Content from Control (mean + SEM) (0.01 μM test compound) [%],Change in cAMP Content from Control (mean + SEM) (0.1 μM test compound) [%],Change in cAMP Content from Control (mean + SEM) (1 μM test compound) [%],Change in cAMP Content from Control (mean + SEM) (10 μM test compound) [%],SMILES
-9 ± 4,6 ± 3,15 ± 2,35 ± 2,,,,,"Nc1sc2c(c1C(=O)c1ccccc1)CCSC2 [Example 1, (2-Amino-4,7-dihydro-5H-thieno[2,3-c]thiopyran-3-yl)-phenyl-methanone]"
-15 ± 3,10 ± 4,-16 ± 5,0.3 ± 5,,,,,"Nc1sc2c(c1C(=O)c1ccc(Cl)cc1)CCSC2 [Example 2, (2-Amino-4,7-dihydro-5H-thieno[2,3-c]thiopyran-3-yl)-(4-chlorophenyl)-methanone]"
1 ± 4,-11 ± 4,-1 ± 3,35 ± 4,,,,,"Nc1sc2c(c1C(=O)c1ccc(Cl)cc1)CCS2 [Example 3, (2-Amino-4,5-dihydrothieno[2,3-b]thiophen-3-yl)-(4-chlorophenyl)-methanone]"
10 ± 2,-2 ± 6,3 ± 6,10 ± 7,,,,,"Nc1sc2c(c1C(=O)c1ccco1)CCCC2 [Example 4, (2-Amino-4,5,6,7-tetrahydrobenzo[b]thiophen-3-yl)-furan-2-yl-methanone]"
,,,,−11 ± 3,−11 ± 5,−16 ± 3,−40 ± 2,Nc1sc2c(c1C(=O)c1cccs1)CCCC2 [Example 5]
11 ± 4,15 ± 4,22 ± 3,52 ± 3,,,,,"Nc1sc2c(c1C(=O)c1cccc3ccccc13)CCCC2 [Example 6, (2-Amino-4,5,6,7-tetrahydrobenzo[b]thiophen-3-yl)-naphthalen-1-yl-methanone]"
0.6 ± 3,6 ± 1,29 ± 4,60 ± 1,,,,,"Nc1sc2c(c1C(=O)c1cccc3ccccc13)CCC2 [Example 7, (2-Amino-5,6-dihydro-4H-cyclopenta[b]thiophen-3-yl)-naphthalen-1-yl-methanone]"
0.6 ± 2,3 ± 3,-6 ± 5,45 ± 2,,,,,"Cc1sc(N)c(C(=O)c2cccc3ccccc23)c1C [Example 8, (2-Amino-4,5-dimethylthiophen-3-yl)-naphthalen-1-yl-methanone]"
21 ± 3,7 ± 4,25 ± 4,-19 ± 2,,,,,"Nc1sc2c(c1C(=O)c1cccc3ccccc13)CCN(Cc1ccccc1)C2 [Example 9, (2-Amino-6-benzyl-4,5,6,7-tetrahydrothieno[2,3-c]pyridin-3-yl)-naphthalen-1-yl-methanone]"
8 ± 5,14 ± 4,25 ± 5,-8 ± 5,,,,,"CC(=O)Nc1sc2c(c1C(=O)c1ccco1)CCCC2 [Example 10, N-[3-(Furan-2-carbonyl)-4,5,6,7-tetrahydrobenzo[b]thiophen-2-yl]-acetamide]"
-3 ± 4,14 ± 4,0.8 ± 3,23 ± 2,,,,,"Nc1sc2c(c1C(=O)c1ccco1)CCC2 [Example 11, (2-Amino-5,6-dihydro-4H-cyclopenta[b]thiophen-3-yl)-furan-2-yl-methanone]"
27 ± 4,0.6 ± 4,15 ± 3,8 ± 11,,,,,"Nc1sc2c(c1C(=O)c1ccco1)CCN(Cc1ccccc1)C2 [Example 12, (2-Amino-6-benzyl-4,5,6,7-tetrahydrothieno[2,3-c]pyridin-3-yl)-furan-2-yl-methanone]"
4 ± 5,-11 ± 5,7 ± 5,-5 ± 10,,,,,"Cc1sc(N)c(C(=O)c2ccco2)c1C [Example 13, (2-Amino-4,5-dimethylthiophen-3-yl)-furan-2-yl-methanone]"
13 ± 5,3 ± 4,4 ± 3,5 ± 4,,,,,"Nc1sc2c(c1C(=O)c1cc3ccccc3o1)CCCC2 [Example 14, (2-Amino-4,5,6,7-tetrahydrobenzo[b]thiophen-3-yl)-benzofuran-2-yl-methanone]"
5 ± 3,13 ± 3,-3 ± 5,4 ± 6,,,,,"Nc1sc2c(c1C(=O)c1cc3ccccc3o1)CCC2 [Example 15, (2-Amino-5,6-dihydro-4H-cyclopenta[b]thiophen-3-yl)-benzofuran-2-yl-methanone]"
-4 ± 3,-14 ± 4,10 ± 2,-11 ± 4,,,,,"Nc1sc2c(c1C(=O)c1cc3ccccc3o1)CCN(Cc1ccccc1)C2 [Example 16, (2-Amino-6-benzyl-4,5,6,7-tetrahydrothieno[2,3-c]pyridin-3-yl)-benzofuran-2-yl-methanone]"
,,,,−3 ± 4,0.8 ± 7,−1 ± 6,2 ± 7,Nc1sc2c(c1C(=O)c1ccccn1)CCC2 [Example 17]
-6 ± 5,7 ± 4,-16 ± 5,-7 ± 6,,,,,"Cc1sc(N)c(C(=O)c2cc3ccccc3o2)c1C [Example 18, (2-Amino-4,5-dimethylthiophen-3-yl)-benzofuran-2-yl-methanone]"
2 ± 4,8 ± 5,11 ± 5,-8 ± 3,,,,,"Nc1sc2c(c1C(=O)c1ccccn1)CCCC2 [Example 19, (2-Amino-4,5,6,7-tetrahydrobenzo[b]thiophen-3-yl)-pyridin-2-yl-methanone]"
-2 ± 4,-7 ± 5,-0.1 ± 5,-31 ± 3,,,,,"Nc1sc2c(c1C(=O)c1ccccn1)CCN(Cc1ccccc1)C2 [Example 20, (2-Amino-6-benzyl-4,5,6,7-tetrahydrothieno[2,3-c]pyridin-3-yl)-pyridin-2-yl-methanone]"
-0.7 ± 3,8 ± 3,-4 ± 4,-14 ± 4,,,,,"Cc1sc(N)c(C(=O)c2ccccn2)c1C [Example 21, (2-Amino-4,5-dimethylthiophen-3-yl)-pyridin-2-yl-methanone]"
-3 ± 3,-19 ± 5,14 ± 5,67 ± 3,,,,,"Nc1sc2c(c1C(=O)c1ccc(Br)c3ccccc13)CCC2 [Example 22, (2-Amino-5,6-dihydro-4H-cyclopenta[b]thiophen-3-yl)-(4-bromonaphthalen-1-yl)-methanone]"
,,,,−6 ± 3,−3 ± 4,−8 ± 4,−35 ± 3,COc1ccc(C(=O)c2c(N)sc3c2CCC3)c2ccccc12 [Example 23]
